ChEMBL document CHEMBL1136797, “Fumagalone, a reversible inhibitor of type 2 methionine aminopeptidase and angiogenesis” (J Med Chem, 2003)
Active and inactive are the calls of the source. The calls are words filed in the database; no cut-off is given here.

How the values were obtained:
[1] = Inhibition of indothelial cell ploriferation determined in bovine aortic endothelial cell (BAEC); assay type: functional, cell-based, Bos taurus
Endothelial cell [2] = experiment: Inhibition of indothelial cell ploriferation determined in bovine aortic endothelial cell (BAEC); Inactive; assay type: functional, cell-based; conditions: Bos taurus
[3] = Inhibition of endothelial cell ploriferation determined in bovine aortic endothelial cell (BAEC); assay type: functional, cell-based, Bos taurus
[4] = target: T1, Methionine aminopeptidase 2 (Homo sapiens, UniProt P50579); experiment: In vitro inhibitory activity against purified recombinant human Methionine Aminopeptidase 2 (MetAP2)
Target sequence in this assay (P50579 whole entry): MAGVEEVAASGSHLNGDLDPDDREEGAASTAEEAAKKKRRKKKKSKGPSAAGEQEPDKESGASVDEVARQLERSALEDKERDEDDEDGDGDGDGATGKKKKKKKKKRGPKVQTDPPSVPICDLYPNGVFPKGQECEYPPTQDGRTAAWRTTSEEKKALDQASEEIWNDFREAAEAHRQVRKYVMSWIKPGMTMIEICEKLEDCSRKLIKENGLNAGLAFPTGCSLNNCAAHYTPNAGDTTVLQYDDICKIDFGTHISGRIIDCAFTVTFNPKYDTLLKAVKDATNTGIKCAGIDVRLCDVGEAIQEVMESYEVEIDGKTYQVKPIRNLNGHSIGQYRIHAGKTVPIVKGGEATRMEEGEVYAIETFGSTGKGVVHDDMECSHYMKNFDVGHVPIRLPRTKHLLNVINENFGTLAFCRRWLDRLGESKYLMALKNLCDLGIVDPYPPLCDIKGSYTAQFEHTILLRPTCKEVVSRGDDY

[5] = target: T1, Methionine aminopeptidase 2
Target sequence in this assay (P50579 2-478 limits assumed): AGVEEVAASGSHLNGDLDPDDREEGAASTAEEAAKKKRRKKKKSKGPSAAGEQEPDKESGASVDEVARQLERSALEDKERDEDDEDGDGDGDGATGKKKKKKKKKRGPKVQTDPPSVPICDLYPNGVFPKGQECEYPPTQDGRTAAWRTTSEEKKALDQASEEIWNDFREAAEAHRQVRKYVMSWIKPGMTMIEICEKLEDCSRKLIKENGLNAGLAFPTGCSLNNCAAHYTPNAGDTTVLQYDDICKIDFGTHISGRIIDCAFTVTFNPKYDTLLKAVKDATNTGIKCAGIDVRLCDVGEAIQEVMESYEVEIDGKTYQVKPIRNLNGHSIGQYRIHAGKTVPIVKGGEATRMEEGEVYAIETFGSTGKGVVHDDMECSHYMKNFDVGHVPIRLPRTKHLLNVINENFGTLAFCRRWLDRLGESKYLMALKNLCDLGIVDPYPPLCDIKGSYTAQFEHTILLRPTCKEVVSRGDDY

Endothelial cell [6] = experiment: Inhibition of endothelial cell ploriferation determined in bovine aortic endothelial cell (BAEC); Inactive; assay type: functional, cell-based; conditions: Bos taurus

For CO[C@@H]1C(=O)CC[C@](O)(C=O)[C@H]1[C@@]1(C)O[C@H]1CC=C(C)C, the IC50 [1] was 52 nM.

In the case of CO[C@@H]1[C@H](O)CC[C@](O)(C=O)[C@H]1[C@@]1(C)O[C@@H]1CC=C(C)C, the NA (Endothelial cell [2]) is reported as “inactive”.

CO[C@@H]1[C@H](OC(=O)/C=C/C=C/C=C/C=C/C(=O)O)CC[C@]2(CO2)[C@H]1[C@@]1(C)O[C@@H]1CC=C(C)C [FUMAGILLIN] gave an IC50 [3] of 200 nM and an IC50 [4] of 1 nM.

In the case of CO[C@@H]1C(=O)CC[C@](O)(C[S+]([O-])c2ccccc2)[C@H]1[C@@]1(C)O[C@@H]1CC=C(C)C (some centres not stated), the NA (Endothelial cell [2]) is reported as “inactive” and the NA [5] is reported as “inactive”.

For CO[C@H]1[C@H]([C@@]2(C)O[C@H]2CC=C(C)C)[C@@](O)(C=O)CC[C@@H]1O, the NA (Endothelial cell [6]) was “inactive”.
